In patent publication US11472808B2, “Substituted pyrrolo[1,2-c]pyrimidines as hepatitis B antiviral agents” (Enanta Pharmaceuticals, Inc., priority 2019, dated 2022):

test system: HBV; test: HepAD38 anti-HBV assay: reduction of viral product accumulation (virion DNA qPCR, HBsAg/HBeAg ELISA); type: cell-based; conditions: Hepatitis B virus, 120 h; HepAD38 cells; concentration reducing viral product accumulation by 50% relative to no drug controls; harvest five days after compound addition; read-out: HepAD38 EC50
Method: Methods: HepAD38 cells are maintained as previously reported (Ladner et al, Antimicrob. Agents Chemother. 1997, […], 1715). Briefly, cells are passaged upon attaining confluency in DMEM/F12 media in the presence of 10% FBS, Penn/Strep, 250 μg/mL G418, and 1 μg/ml tetracycline. Novel compounds are screened by first washing cells three times with PBS to remove tetracycline, and plating in 96 well plates at 35,000 cells/well. Compounds dissolved in DMSO are then diluted 1:200 into wells containing cells. Five days after compound addition, material is harvested for analysis. For an extended 8 day analysis, cells are plated and treated as described above, but media and compound are refreshed on d2 and d5 post initial treatment.
On harvest day, virion DNA is obtained by lysing with Sidestep Lysis and Stabilization Buffer and then quantified via quantitative real time PCR. Commercially available ELISA kits are used to quantitate the viral proteins HBsAg (Alpco) or HbeAg (US Biological) by following the manufacturer's recommended protocol after diluting samples to match the linear range of their respective assays. Irrespective of readout, compound concentrations that reduce viral product accumulation in the cell lysates or supernatants by 50% relative to no drug controls (EC50) are reported; EC50 ranges are as follows: A<0.1 μM; B 0.1-0.4 μM; C>0.4 μM.

| Structure (SMILES) | EC50 [nM] |
| --- | --- |
| O=C(N[C@H]1CC2=C(c3ccn(C(F)F)n3)[C@H](c3ccc(F)cc3Cl)N=C(c3nccs3)N2C1)[C@@H]1CC1c1ccccn1 (relative stereo) [Example 312] | 100 to 400 |
| C=CCOC[C@@]1(O)CC2=C(c3ccn(C(F)F)n3)[C@H](c3ccc(F)cc3Cl)N=C(c3nccs3)N2C1 (single isomer, unassigned) [Example 109] | 100 to 400 |
| COC(=O)c1cccc(S(=O)(=O)N[C@H]2CC3=C(c4ccn(C(F)F)n4)[C@H](c4ccc(F)cc4Cl)N=C(c4nccs4)N3C2)c1 [Example 2] | < 100 |
| COC(=O)c1ccccc1S(=O)(=O)N[C@H]1CC2=C(c3ccn(C(F)F)n3)[C@H](c3ccc(F)cc3Cl)N=C(c3nccs3)N2C1 [Example 4] | 100 to 400 |
| O=C(O)c1cccc(S(=O)(=O)N[C@H]2CC3=C(c4ccn(C(F)F)n4)[C@H](c4ccc(F)cc4Cl)N=C(c4nccs4)N3C2)c1 [Example 5] | < 100 |
| O=C(O)c1ccc(S(=O)(=O)N[C@H]2CC3=C(c4ccn(C(F)F)n4)[C@H](c4ccc(F)cc4Cl)N=C(c4nccs4)N3C2)cc1 [Example 6] | < 100 |
| O=C(O)c1ccccc1S(=O)(=O)N[C@H]1CC2=C(c3ccn(C(F)F)n3)[C@H](c3ccc(F)cc3Cl)N=C(c3nccs3)N2C1 [Example 7] | > 400 |
| COC(=O)CCS(=O)(=O)N[C@H]1CC2=C(c3ccn(C(F)F)n3)[C@H](c3ccc(F)cc3Cl)N=C(c3nccs3)N2C1 [Example 8] | 100 to 400 |
| COC(=O)CCCS(=O)(=O)N[C@H]1CC2=C(c3ccn(C(F)F)n3)[C@H](c3ccc(F)cc3Cl)N=C(c3nccs3)N2C1 [Example 9] | < 100 |
| O=C(O)CCS(=O)(=O)N[C@H]1CC2=C(c3ccn(C(F)F)n3)[C@H](c3ccc(F)cc3Cl)N=C(c3nccs3)N2C1 [Example 10] | > 400 |
| O=C(O)CCCS(=O)(=O)N[C@H]1CC2=C(c3ccn(C(F)F)n3)[C@H](c3ccc(F)cc3Cl)N=C(c3nccs3)N2C1 [Example 11] | < 100 |
| COC(=O)CS(=O)(=O)N[C@H]1CC2=C(c3ccn(C(F)F)n3)[C@H](c3ccc(F)cc3Cl)N=C(c3nccs3)N2C1 [Example 12] | 100 to 400 |
| COC(=O)CCCCS(=O)(=O)N[C@H]1CC2=C(c3ccn(C(F)F)n3)[C@H](c3ccc(F)cc3Cl)N=C(c3nccs3)N2C1 [Example 13] | 100 to 400 |
| COC(=O)[C@H]1C[C@H](S(=O)(=O)N[C@H]2CC3=C(c4ccn(C(F)F)n4)[C@H](c4ccc(F)cc4Cl)N=C(c4nccs4)N3C2)C1 [Example 14] | 100 to 400 |
| COC(=O)[C@H]1C[C@@H](S(=O)(=O)N[C@H]2CC3=C(c4ccn(C(F)F)n4)[C@H](c4ccc(F)cc4Cl)N=C(c4nccs4)N3C2)C1 [Example 15] | 100 to 400 |
| O=C(O)[C@H]1C[C@H](S(=O)(=O)N[C@H]2CC3=C(c4ccn(C(F)F)n4)[C@H](c4ccc(F)cc4Cl)N=C(c4nccs4)N3C2)C1 [Example 16] | > 400 |
| O=C(O)[C@H]1C[C@@H](S(=O)(=O)N[C@H]2CC3=C(c4ccn(C(F)F)n4)[C@H](c4ccc(F)cc4Cl)N=C(c4nccs4)N3C2)C1 [Example 17] | 100 to 400 |
| O=C(O)CS(=O)(=O)N[C@H]1CC2=C(c3ccn(C(F)F)n3)[C@H](c3ccc(F)cc3Cl)N=C(c3nccs3)N2C1 [Example 18] | > 400 |
| O=C(O)CCCCS(=O)(=O)N[C@H]1CC2=C(c3ccn(C(F)F)n3)[C@H](c3ccc(F)cc3Cl)N=C(c3nccs3)N2C1 [Example 19] | 100 to 400 |
| COC(=O)c1ccccc1CS(=O)(=O)N[C@H]1CC2=C(c3ccn(C(F)F)n3)[C@H](c3ccc(F)cc3Cl)N=C(c3nccs3)N2C1 [Example 22] | 100 to 400 |
| O=C(O)c1ccccc1CS(=O)(=O)N[C@H]1CC2=C(c3ccn(C(F)F)n3)[C@H](c3ccc(F)cc3Cl)N=C(c3nccs3)N2C1 [Example 23] | 100 to 400 |

| Structure (SMILES) | EC50 [nM] |
| --- | --- |
| COC(=O)c1ccc(Cl)c(S(=O)(=O)N[C@H]2CC3=C(c4ccn(C(F)F)n4)[C@H](c4ccc(F)cc4Cl)N=C(c4nccs4)N3C2)c1 [Example 24] | 100 to 400 |
| COC(=O)c1ccc(C)c(S(=O)(=O)N[C@H]2CC3=C(c4ccn(C(F)F)n4)[C@H](c4ccc(F)cc4Cl)N=C(c4nccs4)N3C2)c1 [Example 25] | 100 to 400 |
| COC(=O)c1cc(S(=O)(=O)N[C@H]2CC3=C(c4ccn(C(F)F)n4)[C@H](c4ccc(F)cc4Cl)N=C(c4nccs4)N3C2)c(C)cc1F [Example 26] | > 400 |
| O=C(O)c1ccc(Cl)c(S(=O)(=O)N[C@H]2CC3=C(c4ccn(C(F)F)n4)[C@H](c4ccc(F)cc4Cl)N=C(c4nccs4)N3C2)c1 [Example 27] | 100 to 400 |
| Cc1ccc(C(=O)O)cc1S(=O)(=O)N[C@H]1CC2=C(c3ccn(C(F)F)n3)[C@H](c3ccc(F)cc3Cl)N=C(c3nccs3)N2C1 [Example 28] | 100 to 400 |
| Cc1cc(F)c(C(=O)O)cc1S(=O)(=O)N[C@H]1CC2=C(c3ccn(C(F)F)n3)[C@H](c3ccc(F)cc3Cl)N=C(c3nccs3)N2C1 [Example 29] | > 400 |
| CCOC(=O)Cc1ccccc1S(=O)(=O)N[C@H]1CC2=C(c3ccn(C(F)F)n3)[C@H](c3ccc(F)cc3Cl)N=C(c3nccs3)N2C1 [Example 30] | 100 to 400 |
| COC(=O)Cc1cccc(S(=O)(=O)N[C@H]2CC3=C(c4ccn(C(F)F)n4)[C@H](c4ccc(F)cc4Cl)N=C(c4nccs4)N3C2)c1 [Example 31] | < 100 |
| O=C(O)Cc1ccccc1S(=O)(=O)N[C@H]1CC2=C(c3ccn(C(F)F)n3)[C@H](c3ccc(F)cc3Cl)N=C(c3nccs3)N2C1 [Example 32] | 100 to 400 |
| O=C(O)Cc1cccc(S(=O)(=O)N[C@H]2CC3=C(c4ccn(C(F)F)n4)[C@H](c4ccc(F)cc4Cl)N=C(c4nccs4)N3C2)c1 [Example 33] | 100 to 400 |
| COC(=O)c1ccc(CS(=O)(=O)N[C@H]2CC3=C(c4ccn(C(F)F)n4)[C@H](c4ccc(F)cc4Cl)N=C(c4nccs4)N3C2)cc1 [Example 34] | < 100 |
| COC(=O)Cc1ccc(S(=O)(=O)N[C@H]2CC3=C(c4ccn(C(F)F)n4)[C@H](c4ccc(F)cc4Cl)N=C(c4nccs4)N3C2)cc1 [Example 35] | < 100 |
| O=C(O)c1ccc(CS(=O)(=O)N[C@H]2CC3=C(c4ccn(C(F)F)n4)[C@H](c4ccc(F)cc4Cl)N=C(c4nccs4)N3C2)cc1 [Example 36] | < 100 |
| O=C(O)Cc1ccc(S(=O)(=O)N[C@H]2CC3=C(c4ccn(C(F)F)n4)[C@H](c4ccc(F)cc4Cl)N=C(c4nccs4)N3C2)cc1 [Example 37] | > 400 |
| CCOC(=O)Cn1cc(S(=O)(=O)N[C@H]2CC3=C(c4ccn(C(F)F)n4)[C@H](c4ccc(F)cc4Cl)N=C(c4nccs4)N3C2)cn1 [Example 38] | > 400 |
| CCOC(=O)CN([C@H]1CC2=C(c3ccn(C(F)F)n3)[C@H](c3ccc(F)cc3Cl)N=C(c3nccs3)N2C1)S(=O)(=O)c1cnn(CC(=O)OCC)c1 [Example 39] | > 400 |
| O=C1NCCN1[C@H]1CC2=C(c3ccn(C(F)F)n3)[C@H](c3ccc(F)cc3Cl)N=C(c3nccs3)N2C1 [Example 40] | 100 to 400 |
| C#CCN1CCN([C@H]2CC3=C(c4ccn(C(F)F)n4)[C@H](c4ccc(F)cc4Cl)N=C(c4nccs4)N3C2)C1=O [Example 41] | 100 to 400 |
| COC(=O)c1ccc(C#CCN2CCN([C@H]3CC4=C(c5ccn(C(F)F)n5)[C@H](c5ccc(F)cc5Cl)N=C(c5nccs5)N4C3)C2=O)cc1 [Example 42] | > 400 |
| O=C(O)c1ccc(C#CCN2CCN([C@H]3CC4=C(c5ccn(C(F)F)n5)[C@H](c5ccc(F)cc5Cl)N=C(c5nccs5)N4C3)C2=O)cc1 [Example 43] | > 400 |
